Experiments:
Test in all cases: ATPase modulation in proteoliposomes, malachite green
Assay type in all cases: biochemical
EfrEF [1] = target: T1, EfrEF (Enterococcus faecalis, UniProt Q832J9+Q832K0); details: 0.1-200 uM drug; 1 mM ATP, 10 mM MgSO4, pH 7.0, 30°C; bell-shaped curve
T1 construct: gene EF_2226; full-length heterodimer, N-terminal deca-His tag on first chain cleaved with 3C protease, expressed in L. lactis NZ9000 dlmrA dlmrCD; proteoliposomes

EfrEF [2] = target: T1, EfrEF; details: 2.5 uM Hoechst 33342; 1 mM ATP, 10 mM MgSO4, pH 7.0, 30°C; bell-shaped curve
EfrAB = target: T2, EfrAB (Enterococcus faecalis, UniProt Q82ZX7+Q82ZX8); details: 20 uM Hoechst 33342; 1 mM ATP, 10 mM MgSO4, pH 7.0, 30°C; bell-shaped curve
T2 construct: gene EF_2920; full-length heterodimer, N-terminal deca-His tag on first chain cleaved with 3C protease, expressed in L. lactis NZ9000 dlmrA dlmrCD; proteoliposomes

EfrCD = target: T3, EfrCD (Enterococcus faecalis, UniProt Q837P4+Q837P5); details: 0.1-200 uM drug; 1 mM ATP, 10 mM MgSO4, pH 7.0, 30°C; bell-shaped curve
T3 construct: gene EF_0789; full-length heterodimer, N-terminal deca-His tag on EfrC cleaved with 3C protease (tag present in cells), expressed in L. lactis NZ9000 dlmrA dlmrCD; proteoliposomes
T3 sequence (Q837P5 entry or part of it): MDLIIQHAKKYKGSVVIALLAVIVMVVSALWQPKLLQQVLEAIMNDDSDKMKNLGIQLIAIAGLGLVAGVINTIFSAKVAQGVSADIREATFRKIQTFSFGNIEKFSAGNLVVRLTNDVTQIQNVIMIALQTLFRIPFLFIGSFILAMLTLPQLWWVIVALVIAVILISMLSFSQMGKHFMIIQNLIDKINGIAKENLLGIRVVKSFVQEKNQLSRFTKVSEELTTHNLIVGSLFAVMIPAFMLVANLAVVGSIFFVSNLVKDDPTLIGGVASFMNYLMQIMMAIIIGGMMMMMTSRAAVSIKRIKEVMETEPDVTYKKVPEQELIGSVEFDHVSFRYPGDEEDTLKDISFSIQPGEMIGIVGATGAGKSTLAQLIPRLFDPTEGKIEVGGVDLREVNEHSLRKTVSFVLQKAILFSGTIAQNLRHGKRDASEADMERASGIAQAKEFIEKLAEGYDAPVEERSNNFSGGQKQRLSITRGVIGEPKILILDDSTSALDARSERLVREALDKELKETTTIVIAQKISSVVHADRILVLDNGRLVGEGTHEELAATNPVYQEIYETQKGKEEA
T3 sequence (Q837P4 entry or part of it): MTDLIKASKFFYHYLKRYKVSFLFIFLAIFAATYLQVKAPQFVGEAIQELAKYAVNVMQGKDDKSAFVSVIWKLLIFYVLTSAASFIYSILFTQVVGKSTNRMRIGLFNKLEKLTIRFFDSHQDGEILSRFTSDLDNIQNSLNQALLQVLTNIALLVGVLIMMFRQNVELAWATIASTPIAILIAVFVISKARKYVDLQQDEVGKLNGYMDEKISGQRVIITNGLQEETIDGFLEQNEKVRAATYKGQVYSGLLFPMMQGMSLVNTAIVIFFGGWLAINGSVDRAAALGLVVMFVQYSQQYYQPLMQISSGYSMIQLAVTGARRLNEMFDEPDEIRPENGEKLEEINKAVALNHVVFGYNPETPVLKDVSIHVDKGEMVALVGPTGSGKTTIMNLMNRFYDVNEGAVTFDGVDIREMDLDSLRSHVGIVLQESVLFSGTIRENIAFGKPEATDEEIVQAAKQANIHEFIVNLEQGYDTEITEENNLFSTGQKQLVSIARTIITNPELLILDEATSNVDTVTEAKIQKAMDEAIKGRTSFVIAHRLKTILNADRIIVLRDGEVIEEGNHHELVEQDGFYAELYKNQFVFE

T1 sequence (Q832K0 entry or part of it): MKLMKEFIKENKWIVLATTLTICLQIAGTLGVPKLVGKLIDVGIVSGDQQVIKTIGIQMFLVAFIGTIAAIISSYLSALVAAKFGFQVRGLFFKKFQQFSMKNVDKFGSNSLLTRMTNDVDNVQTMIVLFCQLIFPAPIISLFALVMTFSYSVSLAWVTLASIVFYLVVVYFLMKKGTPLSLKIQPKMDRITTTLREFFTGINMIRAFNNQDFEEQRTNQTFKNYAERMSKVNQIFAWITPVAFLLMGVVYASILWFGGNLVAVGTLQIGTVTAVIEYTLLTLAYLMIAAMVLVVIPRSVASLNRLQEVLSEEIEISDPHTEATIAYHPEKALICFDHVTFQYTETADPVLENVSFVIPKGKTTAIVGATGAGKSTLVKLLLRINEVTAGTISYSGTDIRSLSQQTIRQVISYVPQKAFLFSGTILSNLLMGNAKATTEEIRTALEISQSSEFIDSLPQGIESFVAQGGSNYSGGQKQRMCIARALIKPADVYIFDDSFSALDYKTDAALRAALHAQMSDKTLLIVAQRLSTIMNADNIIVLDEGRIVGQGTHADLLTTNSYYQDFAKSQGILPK
T1 sequence (Q832J9 entry or part of it): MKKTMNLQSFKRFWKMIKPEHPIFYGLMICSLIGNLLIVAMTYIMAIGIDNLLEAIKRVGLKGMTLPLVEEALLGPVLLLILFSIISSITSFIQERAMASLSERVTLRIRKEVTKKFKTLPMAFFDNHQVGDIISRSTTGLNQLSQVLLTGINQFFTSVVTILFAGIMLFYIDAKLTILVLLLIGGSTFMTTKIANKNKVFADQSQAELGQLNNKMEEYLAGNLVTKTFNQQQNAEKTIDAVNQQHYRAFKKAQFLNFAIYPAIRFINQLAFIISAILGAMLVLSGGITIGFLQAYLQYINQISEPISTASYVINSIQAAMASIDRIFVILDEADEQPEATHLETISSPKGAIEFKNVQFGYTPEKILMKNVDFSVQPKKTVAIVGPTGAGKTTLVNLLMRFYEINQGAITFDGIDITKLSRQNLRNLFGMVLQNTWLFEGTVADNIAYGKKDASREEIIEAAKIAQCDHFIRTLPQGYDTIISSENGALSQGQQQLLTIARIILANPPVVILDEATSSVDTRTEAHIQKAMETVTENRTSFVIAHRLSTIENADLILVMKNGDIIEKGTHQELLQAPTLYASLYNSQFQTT
T2 sequence (Q82ZX8 entry or part of it): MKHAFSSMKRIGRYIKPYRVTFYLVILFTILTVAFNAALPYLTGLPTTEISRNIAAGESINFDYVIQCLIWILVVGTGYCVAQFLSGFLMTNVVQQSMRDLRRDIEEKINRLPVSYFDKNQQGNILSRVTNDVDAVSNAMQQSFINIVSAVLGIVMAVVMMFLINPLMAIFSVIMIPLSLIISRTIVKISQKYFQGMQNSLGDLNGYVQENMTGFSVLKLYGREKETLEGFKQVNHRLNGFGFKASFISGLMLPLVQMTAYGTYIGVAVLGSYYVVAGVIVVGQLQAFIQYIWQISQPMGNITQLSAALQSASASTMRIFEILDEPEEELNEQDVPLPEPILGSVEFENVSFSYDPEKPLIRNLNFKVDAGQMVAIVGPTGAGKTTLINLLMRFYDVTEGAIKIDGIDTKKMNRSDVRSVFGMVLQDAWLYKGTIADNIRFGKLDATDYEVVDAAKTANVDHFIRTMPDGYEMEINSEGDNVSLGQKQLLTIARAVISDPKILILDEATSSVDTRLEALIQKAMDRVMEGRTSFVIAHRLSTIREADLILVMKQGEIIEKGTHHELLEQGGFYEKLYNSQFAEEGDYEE
T2 sequence (Q82ZX7 entry or part of it): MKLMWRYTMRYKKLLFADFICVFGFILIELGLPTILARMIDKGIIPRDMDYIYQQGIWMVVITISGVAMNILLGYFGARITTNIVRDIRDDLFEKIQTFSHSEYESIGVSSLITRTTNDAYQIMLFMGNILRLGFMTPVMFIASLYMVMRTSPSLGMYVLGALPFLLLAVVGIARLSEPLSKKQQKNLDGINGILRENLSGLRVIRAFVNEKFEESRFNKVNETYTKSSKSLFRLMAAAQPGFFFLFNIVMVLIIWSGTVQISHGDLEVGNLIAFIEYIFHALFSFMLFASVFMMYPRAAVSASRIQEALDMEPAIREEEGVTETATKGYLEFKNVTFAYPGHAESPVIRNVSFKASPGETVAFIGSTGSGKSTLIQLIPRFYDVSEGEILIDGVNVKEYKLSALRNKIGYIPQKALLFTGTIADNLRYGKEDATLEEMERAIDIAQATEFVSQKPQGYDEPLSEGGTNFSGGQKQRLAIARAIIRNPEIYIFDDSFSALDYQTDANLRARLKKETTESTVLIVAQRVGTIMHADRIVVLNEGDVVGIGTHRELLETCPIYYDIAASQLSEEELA

SMILES: CC[n+]1c(-c2ccccc2)c2cc(N)ccc2c2ccc(N)cc21 [ethidium]
- drug-modulated ATPase activity (EfrEF [1]): For ethidium, a bell-shaped curve with a large magnitude was observed for EfrEF

SMILES: CCOc1ccc(-c2nc3ccc(-c4nc5ccc(N6CCN(C)CC6)cc5[nH]4)cc3[nH]2)cc1 [Hoechst 33342]
- maximal ATPase stimulation (basal = 100%) (EfrEF [2]): 130%
- maximal ATPase stimulation (basal = 100%) (EfrAB): 165%

SMILES: COc1cccc2c1C(=O)c1c(O)c3c(c(O)c1C2=O)C[C@@](O)(C(C)=O)C[C@@H]3O[C@H]1C[C@H](N)[C@H](O)[C@H](C)O1 [daunorubicin]
- drug-modulated ATPase activity (EfrCD): a strong response in the form of a bell-shaped curve was seen for EfrCD

Reference: publication PMC4997860, “The Heterodimeric ABC Transporter EfrCD Mediates Multidrug Efflux in Enterococcus faecalis” (Antimicrobial Agents and Chemotherapy, 2016)
